Values of other authors as cited in patent US9750250B2, “Conjugated polyelectrolytes and methods of using the same” (STC.UNM, priority 2015, dated 2017).

Details: deuterated methanol

CC(=O)c1ccc2ccccc2c1 [2′-acetonaphthone]
singlet oxygen quantum yield ΦΔ of the standard: 0.79±0.02
